B1: C167A (protein, UniProt P53184 1-216, looked up, variant C167A)
Nicotinamidase: MKTLIVVDMQNDFISPLGSLTVPKGEELINPISDLMQDADRDWHRIVVTRDWHPSRHISFAKNHKDKEPYSTYTYHSPRPGDDSTQEGILWPVHCVKNTWGSQLVDQIMDQVVTKHIKIVDKGFLTDREYYSAFHDIWNFHKTDMNKYLEKHHTDEVYIVGVALEYAVKATAISAAELGYKTTVLLDYTRPISDDPEVINKVKEELKAHNINVVDK

Key:
Pnc1 = Pnc1 (Saccharomyces cerevisiae, UniProt P53184); format: biochemical, S. cerevisiae
[1] = Literature hydrolysis in basic solution; format: physicochemical; conditions: 25 °C in 0.1 N NaOH
[2] = 25 °C in 0.1 N NaOH; cited from earlier work
Pnc1 WT or mutant [3] = molecular target: Pnc1 WT or mutant (Saccharomyces cerevisiae, UniProt P53184, C167A); experiment: Steady-state kinetic parameters of Pnc1 mutants, enzyme-coupled assay; format: biochemical, S. cerevisiae; conditions: substrate nicotinamide
Pnc1 WT or mutant [4] = experiment: as above; format: biochemical, S. cerevisiae; conditions: substrate nicotinamide, pH 7.5

Pnc1, sequence (P53184 whole entry): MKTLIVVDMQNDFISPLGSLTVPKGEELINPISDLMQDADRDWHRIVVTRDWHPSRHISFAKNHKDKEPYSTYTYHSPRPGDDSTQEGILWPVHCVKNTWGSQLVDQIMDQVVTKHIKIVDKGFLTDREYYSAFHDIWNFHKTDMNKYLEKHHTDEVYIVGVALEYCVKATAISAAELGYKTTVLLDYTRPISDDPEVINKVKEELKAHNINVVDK

| Molecule | fold decreased kcat/Km compared to nicotinamide (Pnc1) [fold] | fold lower kcat compared to nicotinamide (Pnc1) [fold] | fold slower hydrolysis rate compared to nicotinamide [1] [fold] | pseudo-first-order rate of hydrolysis in basic solutions [2] [h⁻¹] | nicotinamidase activity (Pnc1 WT or mutant [3]) | kcat (Pnc1 WT or mutant [4]) [s⁻¹] |
| --- | --- | --- | --- | --- | --- | --- |
| NC(=O)c1ccccc1 [benzamide] | 200 | 78 | 7 | 0.00408 |  |  |
| B1 |  |  |  |  | lost all detectable nicotinamidase activity | < 0.0005 |

Source: paper PMC3257521 (Biochemistry, 2011)
